According to ChEMBL document CHEMBL4308841, “Synthesis, in vitro antiproliferative activity, and kinase inhibitory effects of pyrazole-containing diarylureas and diarylamides” (Eur J Med Chem, 2018):

How the values were obtained:
PC-3 = experiment: Growth inhibition of human PC3 cells assessed as cell growth at 0.1 uM incubated for 48 hrs by sulforhodamine B assay relative to control; assay type: functional; conditions: PC-3, 48 h, read-out: Activity
SK-MEL-28 = experiment: Growth inhibition of human SK-MEL-28 cells assessed as cell growth at 100 uM incubated for 48 hrs by sulforhodamine B assay relative to control; assay type: functional; conditions: SK-MEL-28, 48 h, read-out: Activity
NCI-H460 [1] = experiment: Growth inhibition of human NCI-H460 cells assessed as cell growth at 0.01 uM incubated for 48 hrs by sulforhodamine B assay relative to control; assay type: functional; conditions: NCI-H460, 48 h, read-out: Activity
Malme-3M = experiment: Growth inhibition of human MALME-3M cells assessed as cell growth at 1 uM incubated for 48 hrs by sulforhodamine B assay relative to control; assay type: functional; conditions: read-out: Activity
NCI-H226 [2] = experiment: Growth inhibition of human NCI-H226 cells assessed as cell growth at 0.01 uM incubated for 48 hrs by sulforhodamine B assay relative to control; assay type: functional; conditions: NCI-H226, 48 h, read-out: Activity
NCI-H322M = experiment: Growth inhibition of human NCI-H322M cells assessed as cell growth at 100 uM incubated for 48 hrs by sulforhodamine B assay relative to control; assay type: functional; conditions: read-out: Activity
HT-29 [3] = experiment: Growth inhibition of human HT-29 cells assessed as cell growth at 0.01 uM incubated for 48 hrs by sulforhodamine B assay relative to control; assay type: functional; conditions: HT-29, 48 h, read-out: Activity
SK-OV-3 = experiment: Growth inhibition of human SKOV3 cells incubated for 48 hrs by sulforhodamine B assay; assay type: functional, cell-based; conditions: SK-OV-3, 48 h
NCI-H460 [4] = experiment: Growth inhibition of human NCI-H460 cells assessed as cell growth at 100 uM incubated for 48 hrs by sulforhodamine B assay relative to control; assay type: functional; conditions: NCI-H460, 48 h, read-out: Activity
HCT-116 = experiment: Growth inhibition of human HCT116 cells assessed as cell growth at 1 uM incubated for 48 hrs by sulforhodamine B assay relative to control; assay type: functional; conditions: HCT-116, 48 h, read-out: Activity
HT-29 [5] = experiment: Growth inhibition of human HT-29 cells assessed as cell growth at 100 uM incubated for 48 hrs by sulforhodamine B assay relative to control; assay type: functional; conditions: HT-29, 48 h, read-out: Activity
NCI-H460 [6] = experiment: Growth inhibition of human NCI-H460 cells incubated for 48 hrs by sulforhodamine B assay; assay type: functional, cell-based; conditions: NCI-H460, 48 h
OVCAR-5 [7] = experiment: Growth inhibition of human OVCAR5 cells assessed as cell growth at 1 uM incubated for 48 hrs by sulforhodamine B assay relative to control; assay type: functional; conditions: OVCAR-5, 48 h, read-out: Activity
OVCAR-8 [8] = experiment: Growth inhibition of human OVCAR8 cells assessed as cell growth at 100 uM incubated for 48 hrs by sulforhodamine B assay relative to control; assay type: functional; conditions: OVCAR-8, 48 h, read-out: Activity
RXF 393 = experiment: Growth inhibition of human RXF393 cells incubated for 48 hrs by sulforhodamine B assay; assay type: functional, cell-based; conditions: RXF 393, 48 h
U-251 = experiment: Growth inhibition of human U251 cells incubated for 48 hrs by sulforhodamine B assay; assay type: functional, cell-based; conditions: U-251, 48 h
RPMI-8226 = experiment: Growth inhibition of human RPMI8226 cells assessed as cell growth at 0.01 uM incubated for 48 hrs by sulforhodamine B assay relative to control; assay type: functional; conditions: RPMI-8226, 48 h, read-out: Activity
NCI-H226 [9] = experiment: Growth inhibition of human NCI-H226 cells incubated for 48 hrs by sulforhodamine B assay; assay type: functional, cell-based; conditions: NCI-H226, 48 h
SNB-75 = experiment: Growth inhibition of human SNB75 cells assessed as cell growth at 100 uM incubated for 48 hrs by sulforhodamine B assay relative to control; assay type: functional; conditions: SNB-75, 48 h, read-out: Activity
COLO 205 = experiment: Growth inhibition of human COLO205 cells assessed as cell growth at 0.1 uM incubated for 48 hrs by sulforhodamine B assay relative to control; assay type: functional; conditions: COLO 205, 48 h, read-out: Activity
MCF7 = experiment: Growth inhibition of human MCF7 cells assessed as cell growth at 100 uM incubated for 48 hrs by sulforhodamine B assay relative to control; assay type: functional; conditions: MCF7, 48 h, read-out: Activity
SW-620 = experiment: Growth inhibition of human SW620 cells assessed as cell growth at 1 uM incubated for 48 hrs by sulforhodamine B assay relative to control; assay type: functional; conditions: SW-620, 48 h, read-out: Activity
LOX IMVI = experiment: Growth inhibition of human LOXIMVI cells assessed as cell growth at 1 uM incubated for 48 hrs by sulforhodamine B assay relative to control; assay type: functional; conditions: read-out: Activity
OVCAR-5 [10] = experiment: Growth inhibition of human OVCAR5 cells assessed as cell growth at 0.1 uM incubated for 48 hrs by sulforhodamine B assay relative to control; assay type: functional; conditions: OVCAR-5, 48 h, read-out: Activity
ACHN = experiment: Growth inhibition of human ACHN cells assessed as cell growth at 1 uM incubated for 48 hrs by sulforhodamine B assay relative to control; assay type: functional; conditions: read-out: Activity
SF-539 = experiment: Growth inhibition of human SF539 cells incubated for 48 hrs by sulforhodamine B assay; assay type: functional, cell-based; conditions: SF-539, 48 h
BT-549 = experiment: Growth inhibition of human BT549 cells assessed as cell growth at 100 uM incubated for 48 hrs by sulforhodamine B assay relative to control; assay type: functional; conditions: BT-549, 48 h, read-out: Activity
HT-29 [11] = experiment: Growth inhibition of human HT-29 cells assessed as cell growth at 0.1 uM incubated for 48 hrs by sulforhodamine B assay relative to control; assay type: functional; conditions: HT-29, 48 h, read-out: Activity
OVCAR-8 [12] = experiment: Growth inhibition of human OVCAR8 cells assessed as cell growth at 0.01 uM incubated for 48 hrs by sulforhodamine B assay relative to control; assay type: functional; conditions: OVCAR-8, 48 h, read-out: Activity
UACC-62 = experiment: Growth inhibition of human UACC62 cells assessed as cell growth at 100 uM incubated for 48 hrs by sulforhodamine B assay relative to control; assay type: functional; conditions: UACC-62, 48 h, read-out: Activity
[13] = read-out: LC50 (the source's name)
[14] = read-out: pLC50 (the source's name) (converted)

O=C(Nc1cccc(-n2cc(-c3ccncc3)c(-c3cc(O)cc(Cl)c3)n2)c1)c1ccc(N2CCOCC2)c(C(F)(F)F)c1
growth at 0.1 µM (PC-3): 92%
growth at 100 µM (SK-MEL-28): -22%
growth at 0.01 µM (NCI-H460 [1]): 104%
growth at 1 µM (Malme-3M): 52%
growth at 0.01 µM (NCI-H226 [2]): 98%
growth at 100 µM (NCI-H322M): 21%
growth at 0.01 µM (HT-29 [3]): 93%
GI50 (SK-OV-3; read-out: GI50): 95.3 µM
CC50 (SK-OV-3; [13]): > 100 µM
TGI (SK-OV-3; read-out: TGI): > 100 µM
GI50 (SK-OV-3; read-out: pGI50 (converted)): 9.55 µM
CC50 (SK-OV-3; [14]): > 100 µM
TGI (SK-OV-3; read-out: pTGI (converted)): > 100 µM
growth at 100 µM (NCI-H460 [4]): -47%
growth at 1 µM (HCT-116): 58%
growth at 100 µM (HT-29 [5]): -41%
GI50 (NCI-H460 [6]; read-out: GI50): 0.797 µM
CC50 (NCI-H460 [6]; [13]): > 100 µM
TGI (NCI-H460 [6]; read-out: TGI): 34.8 µM
GI50 (NCI-H460 [6]; read-out: pGI50 (converted)): 0.794 µM
CC50 (NCI-H460 [6]; [14]): > 100 µM
TGI (NCI-H460 [6]; read-out: pTGI (converted)): 3.55 µM
growth at 1 µM (OVCAR-5 [7]): 111%
growth at 100 µM (OVCAR-8 [8]): 17%
LC50 (RXF 393): > 100 µM
GI50 (RXF 393; read-out: GI50): 0.303 µM
TGI (RXF 393; read-out: TGI): 19 µM
GI50 (RXF 393; read-out: pGI50 (converted)): 0.302 µM
TGI (RXF 393; read-out: pTGI (converted)): 1.91 µM
IC50 (U-251): 1.4 µM
GI50 (U-251; read-out: GI50): 1.43 µM
CC50 (U-251; [13]): 44 µM
TGI (U-251; read-out: TGI): 6.3 µM
GI50 (U-251; read-out: pGI50 (converted)): 1.41 µM
CC50 (U-251; [14]): 43.7 µM
TGI (U-251; read-out: pTGI (converted)): 6.31 µM
growth at 0.01 µM (RPMI-8226): 104%
GI50 (NCI-H226 [9]; read-out: GI50): 2.56 µM
LC50 (NCI-H226 [9]; read-out: LC50): > 100 µM
TGI (NCI-H226 [9]; read-out: TGI): > 100 µM
GI50 (NCI-H226 [9]; read-out: pGI50 (converted)): 28.8 µM
LC50 (NCI-H226 [9]; read-out: pLC50 (converted)): > 100 µM
TGI (NCI-H226 [9]; read-out: pTGI (converted)): > 100 µM
growth at 100 µM (SNB-75): 1%
growth at 0.1 µM (COLO 205): 104%
growth at 100 µM (MCF7): 14%
growth at 1 µM (SW-620): 107%
growth at 1 µM (LOX IMVI): 51%
growth at 0.1 µM (OVCAR-5 [10]): 90%
growth at 1 µM (ACHN): 52%
GI50 (SF-539; read-out: GI50): 1.44 µM
CC50 (SF-539; [13]): > 100 µM
TGI (SF-539; read-out: TGI): 44.7 µM
GI50 (SF-539; read-out: pGI50 (converted)): 1.45 µM
CC50 (SF-539; [14]): > 100 µM
TGI (SF-539; read-out: pTGI (converted)): 4.47 µM
growth at 100 µM (BT-549): 17%
growth at 0.1 µM (HT-29 [11]): 95%
growth at 0.01 µM (OVCAR-8 [12]): 101%
growth at 100 µM (UACC-62): -31%
